pIC50: −log10 of the molar value.
Assays:
MERTK = target: T1, MERTK (Homo sapiens, UniProt Q12866); assay: TR-FRET kinase activity assay, MERTK; format: biochemical; settings: for pIC50: TR-FRET activity assay, ATP at Km, 60 minutes, read-out: Mer IC50; for Mer/Flt3 ratio (FLT3 IC50/Mer IC50): ratio calculated as FLT3 IC50/Mer IC50
T1 sequence (Q12866 21-999): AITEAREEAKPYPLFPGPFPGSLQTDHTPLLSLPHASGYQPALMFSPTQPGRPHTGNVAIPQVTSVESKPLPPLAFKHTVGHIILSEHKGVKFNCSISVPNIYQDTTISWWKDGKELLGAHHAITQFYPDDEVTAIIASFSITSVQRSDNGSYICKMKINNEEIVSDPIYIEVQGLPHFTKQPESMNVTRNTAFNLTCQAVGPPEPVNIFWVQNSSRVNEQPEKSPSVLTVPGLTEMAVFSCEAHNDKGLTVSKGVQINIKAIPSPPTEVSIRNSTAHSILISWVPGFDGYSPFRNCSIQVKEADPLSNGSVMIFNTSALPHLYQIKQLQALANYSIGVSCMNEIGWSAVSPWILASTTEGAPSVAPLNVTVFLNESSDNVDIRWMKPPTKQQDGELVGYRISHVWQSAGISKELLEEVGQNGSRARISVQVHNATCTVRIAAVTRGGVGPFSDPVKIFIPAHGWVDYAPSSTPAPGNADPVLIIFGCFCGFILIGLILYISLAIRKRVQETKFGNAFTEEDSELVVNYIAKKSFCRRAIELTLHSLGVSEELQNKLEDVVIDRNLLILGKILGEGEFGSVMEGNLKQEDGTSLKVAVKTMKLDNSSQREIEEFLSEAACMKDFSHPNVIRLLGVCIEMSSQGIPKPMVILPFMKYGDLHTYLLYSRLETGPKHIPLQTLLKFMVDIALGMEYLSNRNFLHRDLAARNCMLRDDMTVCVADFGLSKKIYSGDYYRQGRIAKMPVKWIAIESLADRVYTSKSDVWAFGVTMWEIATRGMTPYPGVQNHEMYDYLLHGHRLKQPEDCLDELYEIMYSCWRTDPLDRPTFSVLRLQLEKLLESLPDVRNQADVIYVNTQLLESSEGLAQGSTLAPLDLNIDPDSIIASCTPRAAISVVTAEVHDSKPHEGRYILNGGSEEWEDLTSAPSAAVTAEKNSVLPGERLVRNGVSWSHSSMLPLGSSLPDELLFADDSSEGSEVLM
Method in brief: (§1)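 Each kinase phosphorylates a fluorescently labeled peptide on tyrosine in the presence of compound, with ATP at its Km, for 60 min at RT in HEPES pH 7.5 buffer with MgCl2, EGTA, Brij 35 and DTT. Product is detected by TR-FRET with a Europium-labeled phospho-specific antibody; IC50 values follow.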

TYRO3 = target: T2, TYRO3 (Homo sapiens, UniProt Q06418); assay: TR-FRET kinase activity assay, TYRO3; format: biochemical; settings: ATP at Km, 60 minutes
T2 sequence (Q06418 41-890): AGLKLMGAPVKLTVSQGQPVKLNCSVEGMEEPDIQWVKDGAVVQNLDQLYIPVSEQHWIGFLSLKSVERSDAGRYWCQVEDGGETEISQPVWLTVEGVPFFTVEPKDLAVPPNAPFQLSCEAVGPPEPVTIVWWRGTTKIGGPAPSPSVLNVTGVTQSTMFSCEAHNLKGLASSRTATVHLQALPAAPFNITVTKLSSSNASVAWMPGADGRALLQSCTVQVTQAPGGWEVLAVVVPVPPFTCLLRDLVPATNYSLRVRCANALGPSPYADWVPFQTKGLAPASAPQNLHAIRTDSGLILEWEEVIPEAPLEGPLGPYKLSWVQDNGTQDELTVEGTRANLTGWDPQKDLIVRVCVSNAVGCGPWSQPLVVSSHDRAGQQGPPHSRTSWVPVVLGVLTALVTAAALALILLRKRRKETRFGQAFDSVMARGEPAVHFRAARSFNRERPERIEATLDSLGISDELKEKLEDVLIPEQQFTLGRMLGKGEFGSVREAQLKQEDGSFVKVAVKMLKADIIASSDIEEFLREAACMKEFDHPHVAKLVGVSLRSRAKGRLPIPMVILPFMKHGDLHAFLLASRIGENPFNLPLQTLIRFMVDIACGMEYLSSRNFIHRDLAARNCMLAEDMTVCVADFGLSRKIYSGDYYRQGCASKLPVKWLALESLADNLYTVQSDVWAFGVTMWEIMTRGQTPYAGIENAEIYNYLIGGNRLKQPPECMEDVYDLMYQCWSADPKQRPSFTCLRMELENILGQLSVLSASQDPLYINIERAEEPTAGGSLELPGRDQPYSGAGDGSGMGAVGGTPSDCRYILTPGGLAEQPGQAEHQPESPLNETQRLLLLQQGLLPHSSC
Method in brief: as §1

SMILES	pIC50 (MERTK)	Mer/Flt3 ratio (FLT3 IC50/Mer IC50) (MERTK)	pIC50 (TYRO3)
O=C(O)[C@H]1CC[C@H](Nc2ncc3c(OC4CCOCC4)ncc([C@H]4CC[C@H](O)CC4)c3n2)CC1 [Compound 410]	≥ 7.00	+++ (a ratio of >100)	6.00 to 7.00
C[C@H](Nc1ncc2c(O[C@H]3C[C@@H](O)C3)ncc([C@H]3CC[C@H](O)CC3)c2n1)C(F)F [Compound 411]	≥ 7.00	+++ (a ratio of >100)	≥ 7.00
C[C@@H](CC(F)(F)F)Nc1ncc2c(O[C@@H]3C[C@H]4CC[C@@H](C3)N4C[C@H]3CCCO3)ncc([C@H]3CC[C@H](O)CC3)c2n1 [Compound 412]	≥ 7.00	+++ (a ratio of >100)	≥ 7.00
C[C@@H](CC(F)(F)F)Nc1ncc2c(O[C@@H]3C[C@H]4CC[C@@H](C3)N4[C@H]3CCOC3)ncc([C@H]3CC[C@H](O)CC3)c2n1 [Compound 413]	≥ 7.00	+++ (a ratio of >100)	≥ 7.00
C[C@@H](CC(F)(F)F)Nc1ncc2c(O[C@@H]3C[C@H]4CC[C@@H](C3)N4C[C@H]3CCOC3)ncc([C@H]3CC[C@H](O)CC3)c2n1 [Compound 414]	≥ 7.00	+++ (a ratio of >100)	≥ 7.00
C[C@@H](CC(F)(F)F)Nc1ncc2c(O[C@@H]3C[C@H]4CC[C@@H](C3)N4[C@@H]3CCOC3)ncc([C@H]3CC[C@H](O)CC3)c2n1 [Compound 415]	≥ 7.00	+++ (a ratio of >100)	≥ 7.00
C[C@@H](CC(F)(F)F)Nc1ncc2c(O[C@@H]3C[C@H]4CC[C@@H](C3)N4C[C@@H]3CCOC3)ncc([C@H]3CC[C@H](O)CC3)c2n1 [Compound 416]	≥ 7.00	+++ (a ratio of >100)	≥ 7.00
CO[C@H]1C[C@@H]1Nc1ncc2c(O[C@H]3C[C@@H](O)C3)ncc([C@H]3CC[C@H](O)CC3)c2n1 [Compound 417]	≥ 7.00	+++ (a ratio of >100)	≥ 7.00
C[C@@H](CC(F)(F)F)Nc1ncc2c(OC3CC(C)(C)N(C[C@@H]4CCCO4)C(C)(C)C3)ncc([C@H]3CC[C@H](O)CC3)c2n1 [Compound 418]	≥ 7.00	+++ (a ratio of >100)	≥ 7.00
COC[C@H](C)Nc1ncc2c(O[C@H]3C[C@H](C(=O)N4CCN(C)CC4)C3)ncc([C@H]3CC[C@H](O)CC3)c2n1 [Compound 419]	≥ 7.00	+++ (a ratio of >100)	≥ 7.00
C[C@@H](CC(F)(F)F)Nc1ncc2c(O[C@H]3C[C@H](CN4CCOCC4)C3)ncc([C@H]3CC[C@H](O)CC3)c2n1 [Compound 420]	≥ 7.00	+++ (a ratio of >100)	≥ 7.00
C[C@@H](CC(F)(F)F)Nc1ncc2c(O[C@@H]3C[C@H]4CC[C@@H](C3)N4C[C@@H]3CCCO3)ncc([C@H]3CC[C@H](O)CC3)c2n1 [Compound 421]	≥ 7.00	+++ (a ratio of >100)	≥ 7.00
C[C@@H](CC(F)(F)F)Nc1ncc2c(O[C@H]3C[C@H](N4CCOCC4)C3)ncc([C@H]3CC[C@H](O)CC3)c2n1 [Compound 422]	≥ 7.00	+++ (a ratio of >100)	≥ 7.00
C[C@@H](CC(F)(F)F)Nc1ncc2c(O[C@H]3C[C@@H](O)C3)ncc([C@H]3CC[C@](C)(O)CC3)c2n1 [Compound 423]	≥ 7.00	+++ (a ratio of >100)	≥ 7.00
C[C@@H](CC(F)(F)F)Nc1ncc2c(O[C@H]3C[C@@H](O)C3)ncc([C@H]3CC[C@@](C)(O)CC3)c2n1 [Compound 424]	≥ 7.00	+++ (a ratio of >100)	≥ 7.00
COC[C@H](C)Nc1ncc2c(O[C@H]3C[C@@H](O)C3)ncc(-c3ccnnc3)c2n1 [Compound 425]	6.00 to 7.00	++ (a ratio of between 10 and 100)	5.00 to 6.00
COC[C@H](C)Nc1ncc2c(O[C@H]3C[C@@H](O)C3)ncc([C@H]3CC[C@](C)(O)CC3)c2n1 [Compound 426]	≥ 7.00	+++ (a ratio of >100)	≥ 7.00
COC[C@H](C)Nc1ncc2c(O[C@H]3C[C@@H](O)C3)ncc([C@H]3CC[C@@](C)(O)CC3)c2n1 [Compound 427]	≥ 7.00	+++ (a ratio of >100)	≥ 7.00
C[C@@H](CC(F)F)Nc1ncc2c(O[C@H]3C[C@@H](O)C3)ncc([C@H]3CC[C@H](O)CC3)c2n1 [Compound 428]	≥ 7.00	+++ (a ratio of >100)	≥ 7.00
C[C@@H](CC(F)(F)F)Nc1ncc2c(O[C@H]3C[C@@](C)(O)C3)ncc([C@H]3CC[C@H](O)CC3)c2n1 [Compound 429]	≥ 7.00	+++ (a ratio of >100)	≥ 7.00

Source: patent publication US20200291018A1, “TAM KINASE INHIBITORS” (SYROS PHARMACEUTICALS, INC., priority 2017, published 2020)
